Source: ChEMBL document CHEMBL1133781, “High-pressure synthesis of enantiomerically pure C-6 substituted pyrazol” (Bioorg Med Chem Lett, 2001)

Assays:
[1] = target: T1, Adenosine receptor A1 (Rattus norvegicus, UniProt P25099); assay: Displacement of [3H]N6-PIA (Kd, 1 nM) binding from Adenosine A1 receptor in whole rat brain membranes; assay type: cell membranes
T1 sequence (P25099 whole entry): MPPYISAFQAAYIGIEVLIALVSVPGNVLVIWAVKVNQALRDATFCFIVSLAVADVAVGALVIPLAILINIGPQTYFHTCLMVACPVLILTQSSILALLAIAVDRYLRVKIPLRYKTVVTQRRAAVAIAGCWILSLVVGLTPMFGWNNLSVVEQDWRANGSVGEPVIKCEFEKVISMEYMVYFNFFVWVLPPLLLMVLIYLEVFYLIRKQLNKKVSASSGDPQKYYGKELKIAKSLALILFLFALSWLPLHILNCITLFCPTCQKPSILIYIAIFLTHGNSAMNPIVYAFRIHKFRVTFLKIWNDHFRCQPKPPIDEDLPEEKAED

[2] = target: Adenosine receptor A2a (Rattus norvegicus, UniProt P30543); assay: Displacement of [3H]CGS-21680 (Kd, 14.9 nM) from A2A receptor in rat striatal membranes; assay type: cell membranes, Membrane
Adenosine receptor A2a, sequence (P30543 whole entry): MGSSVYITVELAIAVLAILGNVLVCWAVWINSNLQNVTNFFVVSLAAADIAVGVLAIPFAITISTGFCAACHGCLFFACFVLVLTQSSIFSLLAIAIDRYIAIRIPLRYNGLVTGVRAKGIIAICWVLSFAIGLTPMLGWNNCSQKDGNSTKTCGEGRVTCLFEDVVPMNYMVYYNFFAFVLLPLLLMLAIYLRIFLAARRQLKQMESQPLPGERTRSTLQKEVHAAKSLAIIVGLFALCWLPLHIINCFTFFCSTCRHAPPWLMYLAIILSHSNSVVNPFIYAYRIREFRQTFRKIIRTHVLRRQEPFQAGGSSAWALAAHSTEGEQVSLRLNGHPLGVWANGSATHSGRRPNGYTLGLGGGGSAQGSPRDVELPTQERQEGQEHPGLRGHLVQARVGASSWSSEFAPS

Compound | Ki [1] [nM] | Ki [2] [nM]
C[C@@H](Nc1nc(N)c2cnn(-c3ccccc3)c2n1)C(N)=O | 486 | 2120
C[C@H](Nc1nc(N)c2cnn(-c3ccccc3)c2n1)C(N)=O | 49.1 | 648
CC(Nc1nc(N)c2cnn(-c3ccccc3)c2n1)C(N)=O (racemic) | 84 | 930
